Experimental data published in US8357377B2, “Cyclodextrin-based materials, compositions and uses related thereto” (priority 2002, dated 2013).

Assay: Rat PVA sponge model, morphological analysis (Masson's Trichrome sections)
Set-up: species or system Harlan Sprague-Dawley rats
Details: in vivo
Procedure: Six small incisions (0.5 cm) were performed and polyvinyl alcohol (PVA, M-PACTO®) sponges were subcutaneously implanted on the ventral side of male Harlan Sprague-Dawley rats.
Four days after implantation, test and control materials were diluted with vPBS and liquid collagen (Cohesion Technologies®) or 58 kD Cyclodextrin (CD)-Adamantane matrix as described above and injected into PVA sponges. Final collagen formulation was 1.8 mg/mL, pHed with NaOH, and brought up to volume with vPBS. Final 58 kD Cyclodextrin (CD)-Adamantane matrix formulation was 100 mg/mL. 200 μL total volume of test reagent was delivered to each sponge. Animals were sacrificed and sponges were removed 2 days after injections. Sponges were cut into three pieces and the majority of the sponge (˜70-80%) was frozen in liquid nitrogen and stored at −80° C. for QPCR and QRT-PCR analysis. A small portion of the sponge was fixed in 4% PFA at 4° C. for 18 hours, paraffin embedded, and sectioned (5 μm). Sections were stained using Masson's Trichrome (cells=black, vasculature=red, and collagen=blue) and Hematoxylin-Eosin methods. Tissue sections were analyzed microscopically for gross histology by two separate investigators.
5 μm, Masson's Trichrome stained paraffin sections were analyzed by two separate observers. Sponge characteristics were qualitatively evaluated by the following criteria: Minimal<Light<Moderate<Heavy<Severe for all categories except Capsule Size. The following criteria were used for evaluation of Capsule Size: Thin<Moderate<Thick<Very Thick.

Collagen
Capsule Size: Thin
Immune Response: Minimal
Immune response (gross histological examination): minimal immune response
